Results taken from US20140194498A1, “POLYISOPRENYLATED TETRACYCLIC XANTHONE WITH ANTICANCER ACTIVITY” (Hong Kong Baptist University, priority 2013, published 2014).
“Also recorded” adds a separate entry of the source. Like-named read-outs stand apart in the source and are kept apart here.

Tests used:
[1] = system: SMMC-7721 (human hepatocellular carcinoma); test: cells
Method: (§1) To determine the cytotoxicity of garciesculentone B, its IC50 values on HepG2, SMMC-7721, MCF-7, and MDA-MB-231 cell lines are measured. […] In addition, further study is taken to test whether garciesculentone B can exert effects on cell motility. A wound healing assay using ECA109 cells is performed in this regard.
(§2) Cytotoxicity Assay. Cytotoxic activitiy of garciesculentone B were evaluated by MTT assay using SMMC-7721 (human hepatocellular carcinoma), HepG2 (human hepatocellular carcinoma), MCF-7 (human breast adenocarcinoma), and MDA-MB-231 (human breast adenocarcinoma). Paclitaxel was used as positive control. The detailed methodology for cytotoxicity assay has already been described in Xia, Z.-X.; Zhang, D.-D.; Liang, S.; Lao, Y.-Z.; Zhang, H.; Tan, H.-S.; Chen, S.-L.; Wang, X.-H.; Xu, H.-X., Bioassay-Guided Isolation of Prenylated Xanthones and Polycyclic Acylphloroglucinols from the Leaves of Garcinia nujiangensis. Journal of Natural Products 2012.

[2] = system: HepG2 (human hepatocellular carcinoma)
Method: as §1, §2

[3] = system: MCF-7 (human breast adenocarcinoma); format: cell-based
Excerpt: (§3) Cytotoxicity Assay. […] Paclitaxel was used as positive control. […] Journal of Natural Products 2012.

[4] = system: MDA-MB-231 (human breast adenocarcinoma); format: cell-based
Excerpt: as §3

[5] = system: human esophageal carcinoma (ECA109) cells; test: Wound healing assay; format: cell-based
Method: Wound healing assay. A wound healing assay was performed by using a modified procedure described previously in Jones, J. I.; Gockerman, A.; Busby, W. H., Jr.; Wright, G.; Clemmons, D. R., Insulin-like growth factor binding protein 1 stimulates cell migration and binds to the alpha 5 beta 1 integrin by means of its Arg-Gly-Asp sequence. Proc Natl Acad Sci USA 1993, 90 (22), 10553-7. Briefly, cells were plated in 24 wells plate at 70% confluence in conditioned medium. 24 hours after seeding the monolayers were wounded by scoring with a sterile plastic 20 μL micropipette tip, then rinsed several times with media to remove cell debris and then incubated in completed medium in the absence or presence of tested compounds (10 and 20 μg/mL) for various periods of time up to 36 hours. Cell migration into the wound surface was monitored by Olympus IX71 microscopy and digitally photographed.

IC50 [1] [µM]	IC50 [2] [µM]	IC50 [3] [µM]	IC50 [4] [µM]	Compound	Cell migration into the wound area (antimigration effect) ([5]; 10 and 20 μg/mL)	Wound closure ([5]; up to 36 hours, control wound edges indistinguishable by 36 hours)	IC50 ([1]; Homo sapiens, SMMC-7721, read-out: Cytotoxicity IC50, SMMC-7721) [µM]
11.8	31.4	23.7	33.9	garciesculentone B	significant delay in cells moving into the wound area; also recorded: shows antimigration effect on ECA109 cells	do not migrate into and completely close the wound	
				CC(=O)O[C@H]1C(=O)[C@@]2(C)[C@H]([C@H](OC(=O)c3ccccc3)[C@]3(O)C[C@H](OC(=O)[C@H](O)[C@@H](NC(=O)c4ccccc4)c4ccccc4)C(C)=C1C3(C)C)[C@]1(OC(C)=O)CO[C@@H]1C[C@@H]2O [Palcitaxel, Paclitaxel, reference compound]			0.0091
